# From PubChem BioAssay (NCI)
#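 Assay format: 96-well plates, 48-hour exposure. Abbreviation: GI50, concentration required for 50% inhibition of growth. TGI is the concentration that stops growth completely.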
# Columns and labels:
# Assay in all cases: NCI-60 cell line screen, 48 h
# 786-0 renal = system: 786-0 renal
# A498 renal = system: A498 renal
# A549 NSCLC = system: A549 NSCLC
# ACHN renal = system: ACHN renal
# BT-549 breast = system: BT-549 breast
# CAKI-1 renal = system: CAKI-1 renal
# CCRF-CEM leukemia = system: CCRF-CEM leukemia
# COLO 205 colon = system: COLO 205 colon
# DU-145 prostate = system: DU-145 prostate
# EKVX NSCLC = system: EKVX NSCLC
# HCC-2998 colon = system: HCC-2998 colon
# HCT-116 colon = system: HCT-116 colon
# HCT-15 colon = system: HCT-15 colon
# HL-60(TB) leukemia = system: HL-60(TB) leukemia
# HOP-62 NSCLC = system: HOP-62 NSCLC
# HOP-92 NSCLC = system: HOP-92 NSCLC
# HS 578T breast = system: HS 578T breast
# HT29 colon = system: HT29 colon
# IGROV1 ovarian = system: IGROV1 ovarian
# K-562 leukemia = system: K-562 leukemia
# KM12 colon = system: KM12 colon
# LOX IMVI melanoma = system: LOX IMVI melanoma
# M14 melanoma = system: M14 melanoma
# MALME-3M melanoma = system: MALME-3M melanoma
# MCF7 breast = system: MCF7 breast
# MDA-MB-231 breast = system: MDA-MB-231 breast
# MDA-MB-435 = system: MDA-MB-435
# MDA-MB-468 breast = system: MDA-MB-468 breast
# MOLT-4 leukemia = system: MOLT-4 leukemia
# NCI-H226 lung = system: NCI-H226 lung
# NCI-H23 lung = system: NCI-H23 lung
# NCI-H460 lung = system: NCI-H460 lung
# NCI-H522 lung = system: NCI-H522 lung
# OVCAR-3 ovarian = system: OVCAR-3 ovarian
# OVCAR-4 ovarian = system: OVCAR-4 ovarian
# OVCAR-5 ovarian = system: OVCAR-5 ovarian
# OVCAR-8 ovarian = system: OVCAR-8 ovarian
# PC-3 prostate = system: PC-3 prostate
# RPMI-8226 leukemia = system: RPMI-8226 leukemia
# RXF 393 renal = system: RXF 393 renal
# SF-268 CNS = system: SF-268 CNS
# SF-295 CNS = system: SF-295 CNS
# SF-539 CNS = system: SF-539 CNS
# SK-MEL-2 melanoma = system: SK-MEL-2 melanoma
# SK-MEL-28 melanoma = system: SK-MEL-28 melanoma
# SK-MEL-5 melanoma = system: SK-MEL-5 melanoma
# SK-OV-3 ovarian = system: SK-OV-3 ovarian
# SN12C renal = system: SN12C renal
# SNB-19 CNS = system: SNB-19 CNS
# SNB-75 CNS = system: SNB-75 CNS
# SR leukemia = system: SR leukemia
# SW-620 colon = system: SW-620 colon
# T-47D breast = system: T-47D breast
# TK-10 renal = system: TK-10 renal
# U251 CNS = system: U251 CNS
# UACC-257 melanoma = system: UACC-257 melanoma
# UACC-62 melanoma = system: UACC-62 melanoma
# UO-31 renal = system: UO-31 renal
smiles,measurement,setting,value
O=c1[nH]n(C(=S)N/N=C/c2ccccc2Cl)c(=O)c2ccccc12,GI50,786-0 renal,4.43 µM
same,TGI,786-0 renal,16 µM
same,GI50,A498 renal,3.66 µM
same,TGI,A498 renal,12.1 µM
same,GI50,A549 NSCLC,2.93 µM
same,TGI,A549 NSCLC,10.7 µM
same,GI50,ACHN renal,3.64 µM
same,TGI,ACHN renal,12.8 µM
same,GI50,BT-549 breast,3.11 µM
same,TGI,BT-549 breast,11.9 µM
same,GI50,CAKI-1 renal,3.7 µM
same,TGI,CAKI-1 renal,15.5 µM
same,GI50,CCRF-CEM leukemia,2.29 µM
same,TGI,CCRF-CEM leukemia,7.56 µM
same,GI50,COLO 205 colon,2.82 µM
same,TGI,COLO 205 colon,7.73 µM
same,GI50,DU-145 prostate,3.84 µM
same,TGI,DU-145 prostate,14.5 µM
same,GI50,EKVX NSCLC,2.73 µM
same,TGI,EKVX NSCLC,10.8 µM
same,GI50,HCC-2998 colon,2.27 µM
same,TGI,HCC-2998 colon,4.79 µM
same,GI50,HCT-116 colon,3.44 µM
same,TGI,HCT-116 colon,14.1 µM
same,GI50,HCT-15 colon,2.24 µM
same,TGI,HCT-15 colon,6.36 µM
same,GI50,HL-60(TB) leukemia,1.65 µM
same,TGI,HL-60(TB) leukemia,4.5 µM
same,GI50,HOP-62 NSCLC,3.14 µM
same,TGI,HOP-62 NSCLC,10.8 µM
same,GI50,HOP-92 NSCLC,2.41 µM
same,TGI,HOP-92 NSCLC,7.29 µM
same,GI50,HS 578T breast,2.65 µM
same,TGI,HS 578T breast,9.55 µM
same,GI50,HT29 colon,3.96 µM
same,TGI,HT29 colon,13.2 µM
same,GI50,IGROV1 ovarian,3.42 µM
same,TGI,IGROV1 ovarian,11.5 µM
same,GI50,K-562 leukemia,2.62 µM
same,TGI,K-562 leukemia,10.6 µM
same,GI50,KM12 colon,3.34 µM
same,TGI,KM12 colon,12.5 µM
same,GI50,LOX IMVI melanoma,2.87 µM
same,TGI,LOX IMVI melanoma,10.4 µM
same,GI50,M14 melanoma,2.96 µM
same,TGI,M14 melanoma,11.4 µM
same,GI50,MALME-3M melanoma,5.64 µM
same,TGI,MALME-3M melanoma,18.5 µM
same,GI50,MCF7 breast,2.4 µM
same,TGI,MCF7 breast,11.3 µM
same,GI50,MDA-MB-231 breast,2.99 µM
same,TGI,MDA-MB-231 breast,8.61 µM
same,GI50,MDA-MB-435,2.88 µM
same,TGI,MDA-MB-435,12.8 µM
same,GI50,MDA-MB-468 breast,1.83 µM
same,TGI,MDA-MB-468 breast,4.46 µM
same,GI50,MOLT-4 leukemia,1.82 µM
same,TGI,MOLT-4 leukemia,5.16 µM
same,GI50,NCI-H226 lung,2.88 µM
same,TGI,NCI-H226 lung,8.54 µM
same,GI50,NCI-H23 lung,1.97 µM
same,TGI,NCI-H23 lung,4.56 µM
same,GI50,NCI-H460 lung,2.11 µM
same,TGI,NCI-H460 lung,5.85 µM
same,GI50,NCI-H522 lung,2.06 µM
same,TGI,NCI-H522 lung,5.4 µM
same,GI50,OVCAR-3 ovarian,3.36 µM
same,TGI,OVCAR-3 ovarian,12.8 µM
same,GI50,OVCAR-4 ovarian,4.46 µM
same,TGI,OVCAR-4 ovarian,16.6 µM
same,GI50,OVCAR-5 ovarian,3.56 µM
same,TGI,OVCAR-5 ovarian,10.6 µM
same,GI50,OVCAR-8 ovarian,2.08 µM
same,TGI,OVCAR-8 ovarian,5.48 µM
same,GI50,PC-3 prostate,4.89 µM
same,TGI,PC-3 prostate,17.9 µM
same,GI50,RPMI-8226 leukemia,2.44 µM
same,TGI,RPMI-8226 leukemia,7.83 µM
same,GI50,RXF 393 renal,2.58 µM
same,TGI,RXF 393 renal,7.71 µM
same,GI50,SF-268 CNS,3.36 µM
same,TGI,SF-268 CNS,13.8 µM
same,GI50,SF-295 CNS,2.48 µM
same,TGI,SF-295 CNS,6.79 µM
same,GI50,SF-539 CNS,2.56 µM
same,TGI,SF-539 CNS,6.26 µM
same,GI50,SK-MEL-2 melanoma,1.85 µM
same,TGI,SK-MEL-2 melanoma,4.19 µM
same,GI50,SK-MEL-28 melanoma,4.6 µM
same,TGI,SK-MEL-28 melanoma,16.1 µM
same,GI50,SK-MEL-5 melanoma,3.03 µM
same,TGI,SK-MEL-5 melanoma,11.9 µM
same,GI50,SK-OV-3 ovarian,4.82 µM
same,TGI,SK-OV-3 ovarian,16.1 µM
same,GI50,SN12C renal,3.01 µM
same,TGI,SN12C renal,10.1 µM
same,GI50,SNB-19 CNS,3.87 µM
same,TGI,SNB-19 CNS,14.3 µM
same,GI50,SNB-75 CNS,2.08 µM
same,TGI,SNB-75 CNS,8.43 µM
same,GI50,SR leukemia,1.86 µM
same,TGI,SR leukemia,5.08 µM
same,GI50,SW-620 colon,3.01 µM
same,TGI,SW-620 colon,10.5 µM
same,GI50,T-47D breast,2.55 µM
same,TGI,T-47D breast,8.92 µM
same,GI50,TK-10 renal,5.05 µM
same,TGI,TK-10 renal,17.3 µM
same,GI50,U251 CNS,2.87 µM
same,TGI,U251 CNS,10.4 µM
same,GI50,UACC-257 melanoma,4.1 µM
same,TGI,UACC-257 melanoma,16.8 µM
same,GI50,UACC-62 melanoma,2.91 µM
same,TGI,UACC-62 melanoma,12.4 µM
same,GI50,UO-31 renal,3.78 µM
same,TGI,UO-31 renal,15 µM
